Reference: patent publication US9932637B2, “Genetic polymorphisms associated with cardiovascular disorders and drug response, methods of detection and uses thereof” (CELERA CORPORATION, priority 2003, dated 2018)
Where “and” joins values, the source holds several entries; their conditions need not be identical. Equal entries are not always repeated.

Test system: patients with prior myocardial infarction (CARE study)
Test: CARE aligned analysis (prospective and case/control design, white males): association of genotypes with pravastatin efficacy (Tables 13, 15)
Assay type: in vivo, human
Conditions: for Pravastatin Patients (%) / Pravastatin Patients n/total / 2 Rare Alleles (%), Pravastatin Patients / 2 Rare Alleles n/total, Pravastatin Patients: F&NF MI; for Pravastatin Patients (%) / Pravastatin Patients n/total: WM; for 2 rare alleles n/total (%), pravastatin patients / Pravastatin vs placebo odds ratio, 0 rare alleles / Pravastatin vs placebo odds ratio, 1 rare allele / Pravastatin vs placebo odds ratio, 2 rare alleles: CARE, F MI/SD/NF MI
Procedure: The data presented in Table 8 based on an association of genotypes with pravastatin efficacy of the CARE samples were further analyzed and presented in Table 13. The further analysis was performed to align the data obtained from the analysis of the CARE samples, which was a prospective study, to the analysis of the WOSCOP samples, which was a case/control study. Table 13 also presents an analysis of the association of genotypes with pravastatin efficacy in the WOSCOPs samples. Relative to the analysis performed on the data presented in Table 8, there are two significant differences to determine if the SNP influenced pravastatin efficacy. Data obtained from the CARE samples were separated by study design into two groups, those in the prospective study design group and those in the case/control study design group. The original care study contained 16 protocol defined cardiovascular disease defined endpoints and 150 other phenotypes. […] The control groups used to compare the data were also divided into two groups, the “all possible” control group and the “cleaner” control group. […] Because the participants in the WOSCOPs trial were all white males, only data obtained from white males in the CARE study were analysed. Data from the “all possible” and “cleaner” controls were compared to data obtained from the cases in the prospective study design while only data from “cleaner” controls were compared to cases in the case/control study design. The data from the case/control cohorts were analysed using conditional logistic regression (as opposed to logistic regression used for the original anaylsis).
The anaylsis was refined as described for both Tables 13 and 14.

[1] = HLA-DPB1 hCV8851085, 0 Rare Alleles, CARE Prospective, Cleaner controls
[2] = HLA-DPB1 hCV8851085, 1 Rare Allele, CARE Case/Control, All Possible controls
[3] = HLA-DPB1 hCV8851085, 1 Rare Allele, CARE Case/Control, Cleaner controls
[4] = HLA-DPB1 hCV8851085, 1 Rare Allele, CARE Prospective, All Possible controls
[5] = HLA-DPB1 hCV8851085, 1 Rare Allele, CARE Prospective, Cleaner controls
[6] = HLA-DPB1 hCV8851085, Case/Control
[7] = HLA-DPB1 hCV8851085, Prospective
[8] = HLA-DPB1 hCV25651174, Case/Control
[9] = HLA-DPB1 hCV25651174, Prospective
[10] = HLA-DQB1 hCV9494470, 0 Rare Alleles, CARE Case/Control, All Possible controls
[11] = HLA-DQB1 hCV9494470, 0 Rare Alleles, CARE Case/Control, Cleaner controls
[12] = HLA-DQB1 hCV9494470, 0 Rare Alleles, CARE Prospective, All Possible controls
[13] = HLA-DQB1 hCV9494470, 0 Rare Alleles, CARE Prospective, Cleaner controls
[14] = HLA-DQB1 hCV9494470, 1 Rare Allele, CARE Case/Control, All Possible controls
[15] = HLA-DQB1 hCV9494470, 1 Rare Allele, CARE Case/Control, Cleaner controls
[16] = HLA-DQB1 hCV9494470, 1 Rare Allele, CARE Prospective, All Possible controls
[17] = HLA-DQB1 hCV9494470, 1 Rare Allele, CARE Prospective, Cleaner controls
[18] = HLA-DQB1 hCV9494470, Case/Control
[19] = HLA-DQB1 hCV9494470, Prospective
[20] = IL1RN hCV8737990, 0 Rare Alleles, CARE Case/Control, Cleaner controls
[21] = IL1RN hCV8737990, 0 Rare Alleles, CARE Prospective, All Possible controls
[22] = IL1RN hCV8737990, 0 Rare Alleles, CARE Prospective, Cleaner controls
[23] = IL1RN hCV8737990, 1 Rare Allele, CARE Case/Control, Cleaner controls
[24] = IL1RN hCV8737990, 1 Rare Allele, CARE Prospective, All Possible controls
[25] = IL1RN hCV8737990, 1 Rare Allele, CARE Prospective, Cleaner controls

In the case of CC[C@H](C)C(=O)O[C@H]1C[C@H](O)C=C2C=C[C@H](C)[C@H](CC[C@@H](O)C[C@@H](O)CC(=O)O)[C@H]21 [pravastatin], the “Pravastatin Patients (%)” value [1] is reported as “(14.1%)”, the “Pravastatin Patients n/total” value [1] is reported as 74/523 and the “Pravastatin Patients (%)” value [2] is reported as “(10.3%)”. The “Pravastatin Patients n/total” value [2] was 44/426, the “Pravastatin Patients (%)” value [3] was “(15.1%)” and the “Pravastatin Patients n/total” value [3] was 44/292. The “Pravastatin Patients (%)” value [4] was “(10.2%)”, the “Pravastatin Patients n/total” value [4] was 44/433 and the “Pravastatin Patients (%)” value [5] was “(14.9%)”. For the same compound, the “Pravastatin Patients n/total” value [5] was 44/295, the “2 Rare Alleles (%), Pravastatin Patients” value (HLA-DPB1 hCV8851085, CARE Case/Control) was “(25.7%)” and the “2 rare alleles n/total (%), pravastatin patients” value (“2 rare alleles n/total (%)” for short) [6] was “(22.9%)”. The “Pravastatin vs placebo odds ratio, 0 rare alleles” value [6] was 0.57, the “Pravastatin vs placebo odds ratio, 1 rare allele” value [6] was 0.87 and the “Pravastatin vs placebo odds ratio, 2 rare alleles” value [6] was 4.69. The “2 rare alleles n/total (%)” value [7] was “(22.9%)”, the “Pravastatin vs placebo odds ratio, 0 rare alleles” value [7] was 0.58 and the “Pravastatin vs placebo odds ratio, 1 rare allele” value [7] was 0.85. The “Pravastatin vs placebo odds ratio, 2 rare alleles” value [7] was 4.15, the “2 Rare Alleles n/total, Pravastatin Patients” value (HLA-DPB1 hCV25651174, CARE Case/Control) was 17/109 and the “2 Rare Alleles n/total, Pravastatin Patients” value (HLA-DPB1 hCV25651174, CARE Prospective) was 17/110 and 17/77. The “Pravastatin vs placebo odds ratio, 0 rare alleles” value [8] was 0.59 and 0.51, the “Pravastatin vs placebo odds ratio, 1 rare allele” value [8] was 0.84 and 0.75 and the “Pravastatin vs placebo odds ratio, 2 rare alleles” value [8] was 4.39 and 4.91. The “Pravastatin vs placebo odds ratio, 0 rare alleles” value [9] was 0.59 and 0.52, the “Pravastatin vs placebo odds ratio, 1 rare allele” value [9] was 0.84 and 0.72 and the “Pravastatin vs placebo odds ratio, 2 rare alleles” value [9] was 4.29 and 4.60. For the same compound, the “Pravastatin Patients (%)” value [10] was “(11.1%)”, the “Pravastatin Patients n/total” value [10] was 92/826 and the “Pravastatin Patients (%)” value [11] was “(16.1%)”. For the same compound, the “Pravastatin Patients n/total” value [11] was 92/572, the “Pravastatin Patients (%)” value [12] was “(11.0%)” and the “Pravastatin Patients n/total” value [12] was 92/840. For the same compound, the “Pravastatin Patients (%)” value [13] was “(15.8%)”, the “Pravastatin Patients n/total” value [13] was 92/583 and the “Pravastatin Patients (%)” value [14] was “(7.9%)”. The “Pravastatin Patients n/total” value [14] was 28/353, the “Pravastatin Patients (%)” value [15] was “(11.5%)” and the “Pravastatin Patients n/total” value [15] was 28/244. For the same compound, the “Pravastatin Patients (%)” value [16] was “(7.8%)”, the “Pravastatin Patients n/total” value [16] was 28/361 and the “Pravastatin Patients (%)” value [17] was “(11.3%)”. For the same compound, the “Pravastatin Patients n/total” value [17] was 28/247, the “Pravastatin vs placebo odds ratio, 0 rare alleles” value [18] was 0.99 and 0.90 and the “Pravastatin vs placebo odds ratio, 1 rare allele” value [18] was 0.40 and 0.36. For the same compound, the “Pravastatin vs placebo odds ratio, 2 rare alleles” value [18] was 2.00 and 2.22, the “Pravastatin vs placebo odds ratio, 0 rare alleles” value [19] was 0.99 and 0.87 and the “Pravastatin vs placebo odds ratio, 1 rare allele” value [19] was 0.42 and 0.38. For the same compound, the “Pravastatin vs placebo odds ratio, 2 rare alleles” value [19] was 2.06 and 2.16, the “Pravastatin Patients (%)” value [20] was “(14.9%)” and the “Pravastatin Patients n/total” value [20] was 66/444. For the same compound, the “Pravastatin Patients (%)” value [21] was “(10.3%)”, the “Pravastatin Patients n/total” value [21] was 66/642 and the “Pravastatin Patients (%)” value [22] was “(14.6%)”. The “Pravastatin Patients n/total” value [22] was 66/453, the “Pravastatin Patients (%)” value [23] was “(13.0%)” and the “Pravastatin Patients n/total” value [23] was 43/332. The “Pravastatin Patients (%)” value [24] was “(8.7%)”, the “Pravastatin Patients n/total” value [24] was 43/496 and the “Pravastatin Patients (%)” value [25] was “(12.8%)”. The “Pravastatin Patients n/total” value [25] was 43/336, the “2 Rare Alleles (%), Pravastatin Patients” value (IL1RN hCV8737990, CARE Case/Control) was “(27.4%)” and the “2 rare alleles n/total (%)” value (IL1RN hCV8737990, Case/Control) was “(21.1%)”. The “Pravastatin vs placebo odds ratio, 0 rare alleles” value (IL1RN hCV8737990, Case/Control) was 0.77, the “Pravastatin vs placebo odds ratio, 1 rare allele” value (IL1RN hCV8737990, Case/Control) was 0.50 and the “Pravastatin vs placebo odds ratio, 2 rare alleles” value (IL1RN hCV8737990, Case/Control) was 1.97. For the same compound, the “2 rare alleles n/total (%)” value (IL1RN hCV8737990, Prospective) was “(20.7%)”, the “Pravastatin vs placebo odds ratio, 0 rare alleles” value (IL1RN hCV8737990, Prospective) was 0.80 and the “Pravastatin vs placebo odds ratio, 1 rare allele” value (IL1RN hCV8737990, Prospective) was 0.46. For the same compound, the “Pravastatin vs placebo odds ratio, 2 rare alleles” value (IL1RN hCV8737990, Prospective) was 1.92 and the “Pravastatin vs placebo odds ratio, 0 rare alleles” value (IL4R hCV2769554, Case/Control) was 0.58 and 0.57.
